Key:
[1] = test system: SH-SY5Y cells; experiment: Quantitative western immunoblotting of autophagy and endo-lysosomal proteins; assay type: cell-based, human; conditions: Aβ 1 µM, 24 h, n = 6, N = 3
Experimental: (§1) SH-SY5Y cells seeded on D1, were treated with Aβ variants (1 μM) on D3 in DMEM/F-12 media without serum and antibiotics. Control treatment included treatment with equal volume of 10 mM NaOH solution used for preparing the Aβ stock solutions, in respective cell culture medium. SH-SY5Y cells, after 16 h of transient expression of the reporter constructs, were treated with different Aβ variants, autophagy modulator substrates and respective controls in DMEM/F-12, FCS^− PS^− media for the mentioned time points. After treatment, cells were washed twice with PBS and with 0.025% trypsin-EDTA in PBS to get rid of cell bound Aβ, followed by subsequent washings with PBS again. Cells were either collected by scraping using a cell-scraper or fixed with 4% PFA-PBS for 15 min at RT, for further immunocytochemistry experiments. Collected treatment media was centrifuged at 1000 g for 5 min, pellet discarded and supernatant frozen at −20°C until further usage.
(§2) Cells were collected by scraping and mechanically homogenized in hypotonic D buffer (10 mM Tris-HCl, pH 7.4, 10 mM NaCl, 0.1 mM EGTA, 25 mM glycerol 2-phosphate, 1 mM DTT) containing protease and phosphatase inhibitors by repeated suspension through a 23 G × 1” needle. Post-nuclear supernatant (PNS) was collected by centrifugation of the mechanically homogenized cellular material at 2,000 g for 5 min. The pellet was the nuclear material. Nuclear pellet was then resuspended in Buffer C (5 mM HEPES, 1.5 mM MgCl2, 0.2 mM EDTA, 0.5 mM DTT, 0.05% NP40 [Sigma Aldrich, 18876], 30% glycerol, pH 7.9) containing protease and phosphatase inhibitors, ultrasonicated at minimum voltage, three currents in four cycles, followed by repetitive cooling of samples on ice. The nuclear fraction was the supernatant collected after centrifugation at 16,100 g for 15 min. The PNS collected from the first step was centrifuged at 16,100 g for 60 min, and supernatant was used as the crude cytosolic fraction. The pellet contained the membrane materials, which were re-homogenized in hypotonic D buffer and again centrifuged at 16,100 g for 60 min. The supernatant was discarded, pellet was resuspended in STEN-lysis buffer (20 mM Tris-HCl, pH 7.5, 150 mM NaCl, 1 mM EDTA, 1 mM EGTA, 1% Triton X-100, 2.5 mM sodium pyrophosphate [Sigma Aldrich, P1835], 1 mM β-glycerophosphate [Sigma Aldrich, G9422]) containing protease and phosphatase inhibitors, and the membrane fraction was the supernatant collected after centrifugation at 16,100 g for 15 min. The crude cytosolic fraction was then further fractionated at 100,000 g for 70 min at 4°C under vacuum. The resultant supernatant was the soluble cytosolic fraction. The pellet was resuspended in STEN lysis buffer and centrifuged at 16,100 g for 15 min. The resultant supernanant represented the insoluble cytosolic fraction.
(§3) For different cellular fractions prepared as described earlier, the protein content was estimated using the standard Pierce™ BCA protein assay kit (ThermoFisher Scientific, 23225). For direct comparison between the samples, equal amount of protein was loaded. Samples were dissolved in Laemmli buffer and were boiled at 95°C for 5 min. They were loaded on a precast 4–12% NuPage® Bis-Tris gels (Life technologies, NP033–5/6, WG140–2/3). Gels and prestained protein molecular weight markers were purchased from Life technologies. The separated proteins were electro-transferred onto a 0.2-μm nitrocellulose (NT) membrane (Amersham, 1060001) for 1 h 45 min. After blotting, the NT membranes were boiled in PBS for 10 min. Ponceau staining was done to monitor protein loading of samples. The blots were then incubated in 5% skim milk in TBS-T (TBS [50 mM Tris-HCl, pH 7.5, 150 mM NaCl] containing 0.1% Tween 20 [Sigma Aldrich, P1379]) for 1 h at RT. Blots were incubated overnight at 4°C in the primary antibody solution (respective dilutions in TBS-T, Table 1). Blots were washed and incubated with appropriate secondary antibodies conjugated either with HRP or fluorescent dyes for 1 h. […]

[2] = test system: primary cortical neurons; experiment: SDS-PAGE and immunoblotting of marker proteins in membrane and cytosolic fractions; assay type: cell-based, mouse; conditions: Aβ 500 nM, 4 h, normalized to Actin/GAPDH, fold change wrt control cells, mean ± S.E.M., n = 6, N = 3; for CTSD mature* level / CTSD pro* level / EEA1* level / RAB5* level / RAB7* level / RAB11* level / SQSTM1/p62* level / UBQ* level: cytosolic fraction; for ATG3 level / ATG5 level / ATG12–ATG5 level / ATG14 level / LAMP2 level / LC3-I level / LC3-II level / ULK1/Atg1 level: membrane fraction
Experimental: [Worded in the source for another cell line; used here, by the source, with some conditions changed.] as §1, §2, §3

[3] = test system: CTSD and CTSE in SH-SY5Y cells; experiment: CTSD and CTSE activity assay with fluorogenic substrate; assay type: cell-based, human; conditions: Aβ 1 µM, 24 h, per µg total cellular protein, compared to control cells
Experimental: Cells were seeded in a 96-well plate (12000 cells/well, D1) and treated with different Aβ variants (primary cortical neurons, DIV14–500 nM, 4 h; SH-SY5Y cells, D3–1 μM, 24 h) in neurobasal, FCS-/PS- media. After the treatment, the supernatant was discarded, and cells were washed with PBS once. Cells were lysed by solubilizing the plasma membrane and intracellular membranes by adding 50 μL of 200 μg/mL digitonin in acetate buffer to the wells followed by incubation on ice for 15 min. Additionally, 50 μL of the Omnicathepsin D & E fluorogenic substrate (Enzo Life sciences, BML-P145) in sodium acetate buffer was added to the lysates in the wells for a final concentration of 30 μM of substrate and 10 mM DTT. Plate was incubated for 25 min at RT and the reaction was stopped by addition of 10 µl of ethanol. The relative amount of substrate cleavage in each well was computed using multiplate reader at λEx 380 nm and λEm 460 nm. Values were normalized and represented as fold-change with respect to control cells. Graphs in Figure 7G and S7F represent data from 3 independent experiments (n = 9).

Substance | ATG1-ULK1 kinase complex level ([1]; western immunoblot vs control) | EEA1 level ([1]; western immunoblot vs control) | RAB5 level ([1]; western immunoblot vs control) | CTSD mature* level [2] | CTSD pro* level [2] | EEA1* level [2] | RAB5* level [2] | RAB7* level [2] | RAB11* level [2] | SQSTM1/p62* level [2] | UBQ* level [2] | ATG3 level [2] | ATG5 level [2] | ATG12–ATG5 level [2] | ATG14 level [2] | LAMP2 level [2] | LC3-I level [2] | LC3-II level [2] | ULK1/Atg1 level [2] | Activity of lysosomal CTSD and CTSE [3] | also measured
amyloid-β phosphorylated at serine residue 8 [p-Ser8Aβ] | not | increased | increased | 0.94 ± 0.09 fold change | 0.99 ± 0.04 fold change | 1.65 ± 0.21 fold change | 1.26 ± 0.09 fold change | 0.95 ± 0.17 fold change | 1.75 ± 0.29 fold change | 1.49 ± 0.06 fold change | 1.62 ± 0.14 fold change | 1.23 ± 0.38 fold change | 1.18 ± 0.1 fold change | 1.18 ± 0.2 fold change | 1.17 ± 0.05 fold change | 0.97 ± 0.06 fold change | 1.43 ± 0.15 fold change | 1.95 ± 0.14 fold change | 0.88 ± 0.22 fold change | no significant effect | Levels of LC3-I and II ([1]; western immunoblot, compared to control cells): significantly increased levels
amyloid-β phosphorylated at serine residue 26 [p-Ser26Aβ] | increased | no significant effect | increased | 1.46 ± 0.11 fold change | 1.19 ± 0.05 fold change | 1.28 ± 0.12 fold change | 1.47 ± 0.11 fold change | 1.25 ± 0.12 fold change | 1.89 ± 0.06 fold change | 1.41 ± 0.08 fold change | 2.11 ± 0.4 fold change | 1.38 ± 0.32 fold change | 1.31 ± 0.11 fold change | 1.43 ± 0.23 fold change | 1.58 ± 0.17 fold change | 1.23 ± 0.07 fold change | 1.45 ± 0.12 fold change | 1.42 ± 0.2 fold change | 1.74 ± 0.36 fold change | increased activity | Intracellular levels of the ATP6V0A1 subunit of the V-ATPase ([1]; PNS fraction): significantly increased levels; Levels of nuclear transcription factor EB (TFEB) ([1]; nuclear material): significantly increased levels; CTSD level ([1]; western immunoblot vs control): selectively increased; LAMP2 level ([1]; western immunoblot vs control): selectively increased; RAB7 level ([1]; western immunoblot vs control): strongest effects; RAB11 level ([1]; western immunoblot vs control): strongest effects
non-phosphorylated amyloid-β [npAβ, reference compound] | increased | no significant | no significant | 1.08 ± 0.07 fold change | 0.99 ± 0.06 fold change | 1.22 ± 0.15 fold change | 1.08 ± 0.07 fold change | 1.1 ± 0.08 fold change | 1.47 ± 0.22 fold change | 1.19 ± 0.02 fold change | 1.36 ± 0.19 fold change | 1.23 ± 0.21 fold change | 1.08 ± 0.11 fold change | 1.04 ± 0.09 fold change | 1.27 ± 0.08 fold change | 1.16 ± 0.08 fold change | 1.37 ± 0.06 fold change | 1.48 ± 0.06 fold change | 1.37 ± 0.35 fold change | – | ATG3 level ([1]; western immunoblot vs control): not; RAB7 level ([1]; western immunoblot vs control): no significant; RAB11 level ([1]; western immunoblot vs control): smallest effect

— PMC10761119, “Phosphorylation-state dependent intraneuronal sorting of Aβ differentially impairs autophagy and the endo-lysosomal system” (Autophagy, 2023)
